Measurements from patent US20240287154A1, “MC3R AGONIST PEPTIDES” (The Regents of the University of Michigan, priority 2021, published 2024).
Non-standard residues stand in square brackets, D forms with d. Residues, ends and D or L forms follow the SMILES beside them. Bip = N[C@@H](Cc1ccc(-c2ccccc2)cc1)C(=O)O; Phe(4-I) = N[C@@H](Cc1ccc(I)cc1)C(=O)O; NMeK = CN[C@@H](CCCCN)C(=O)O; Nle = CCCC[C@H](N)C(=O)O; dNMeA = CN[C@H](C)C(=O)O; Aib = CC(C)(N)C(=O)O

biological target: human MC4R (Homo sapiens, UniProt P32245); assay: Intracellular cAMP levels in live cells, MC3R selectivity relative to MC4R; format: cell-based; settings: cAMP assays in human MC3R and human MC4R stable cell lines
Sequence (P32245 whole entry): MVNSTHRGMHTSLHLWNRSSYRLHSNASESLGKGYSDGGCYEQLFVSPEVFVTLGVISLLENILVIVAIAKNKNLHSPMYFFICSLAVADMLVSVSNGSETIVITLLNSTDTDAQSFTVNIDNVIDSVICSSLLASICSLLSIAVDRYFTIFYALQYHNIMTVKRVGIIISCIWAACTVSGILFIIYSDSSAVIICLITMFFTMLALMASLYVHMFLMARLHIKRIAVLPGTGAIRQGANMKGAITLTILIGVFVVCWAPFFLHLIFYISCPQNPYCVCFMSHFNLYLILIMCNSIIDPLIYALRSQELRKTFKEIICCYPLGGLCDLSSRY

Compared with `CCCC[C@H](NC(C)=O)C(=O)N[C@H](C)C(=O)N[C@@H](Cc1c[nH]cn1)C(=O)N[C@@H](Cc1ccc(-c2ccccc2)cc1)C(=O)N[C@@H](CCCNC(=N)N)C(=O)N[C@H](Cc1c[nH]c2ccccc12)C(=O)N[C@@H](CC(=O)O)C(=O)N[C@@H](CCCNC(=N)N)C(=O)N[C@@H](Cc1ccccc1)C(=O)NCC(N)=O` [CTX-1168, Nle-D-Ala-His-Bip-Arg-D-Trp-Asp-Arg-Phe-Gly] (Ac-[Nle][dA]H[Bip]R[dW]DRFG-NH2), `CCCC[C@H](NC(C)=O)C(=O)N[C@H](C)C(=O)N[C@@H](Cc1c[nH]cn1)C(=O)N[C@@H](Cc1ccccc1)C(=O)N[C@@H](CCCNC(=N)N)C(=O)N[C@H](Cc1c[nH]c2ccccc12)C(=O)N[C@@H](CC(=O)O)C(=O)N[C@@H](CCCNC(=N)N)C(=O)N[C@H](Cc1ccccc1)C(=O)NCC(=O)O` [CTX-1145, Nle-D-Ala-His-Phe-Arg-D-Trp-Asp-Arg-D-Phe-Gly] (Ac-[Nle][dA]HFR[dW]DR[dF]G-OH) is higher in “MC3R selectivity (relative to MC4R)” value: 485 for the first, 535 for the second.

Going from `CCCC[C@H](NC(=O)[C@@H](NC(=O)[C@@H](N)Cc1ccc(O)cc1)C(C)C)C(=O)N[C@H](C)C(=O)N[C@@H](Cc1c[nH]cn1)C(=O)N[C@H](Cc1ccccc1)C(=O)N[C@@H](CCCNC(=N)N)C(=O)N[C@H](Cc1c[nH]c2ccccc12)C(=O)N[C@@H](CC(=O)O)C(=O)N[C@@H](CCCNC(=N)N)C(=O)N[C@@H](Cc1ccccc1)C(=O)NCC(=O)O` [CTX-1104, Tyr-Val-Nle-D-Ala-His-D-Phe-Arg-D-Trp-Asp-Arg-Phe-Gly] (H-YV[Nle][dA]H[dF]R[dW]DRFG-OH) to `CCCC[C@H](NC(=O)[C@@H](NC(=O)[C@@H](N)Cc1ccc(O)cc1)C(C)C)C(=O)N[C@H](C)C(=O)N[C@@H](Cc1c[nH]cn1)C(=O)N[C@@H](Cc1ccc(I)cc1)C(=O)N[C@@H](CCCNC(=N)N)C(=O)N[C@H](Cc1c[nH]c2ccccc12)C(=O)N[C@@H](CC(=O)O)C(=O)N[C@@H](CCCNC(=N)N)C(=O)N[C@@H](Cc1ccccc1)C(=O)NCC(=O)O` [CTX-2122, Tyr-Val-Nle-D-Ala-His-Phe(4-I)-Arg-D-Trp-Asp-Arg-Phe-Gly] (H-YV[Nle][dA]H[Phe(4-I)]R[dW]DRFG-OH), the “MC3R selectivity (relative to MC4R)” value rises from 27 to 324.

Compared with `CCCC[C@H](NC(C)=O)C(=O)N[C@H](C)C(=O)N[C@@H](Cc1c[nH]cn1)C(=O)N[C@@H](Cc1ccccc1)C(=O)N[C@@H](CCCNC(=N)N)C(=O)N[C@H](Cc1c[nH]c2ccccc12)C(=O)NCC(N)=O` [CTX-1540, Nle-D-Ala-His-Phe-Arg-D-Trp-Gly] (Ac-[Nle][dA]HFR[dW]G-NH2), `CCCC[C@H](NC(C)=O)C(=O)N[C@H](C)C(=O)N[C@@H](Cc1c[nH]cn1)C(=O)N[C@@H](Cc1ccccc1)C(=O)N[C@@H](CCCNC(=N)N)C(=O)N[C@H](Cc1c[nH]c2ccccc12)C(=O)N[C@H](Cc1ccccc1)C(N)=O` [CTX-1542, Nle-D-Ala-His-Phe-Arg-D-Trp-D-Phe] (Ac-[Nle][dA]HFR[dW][dF]-NH2) is higher in “MC3R selectivity (relative to MC4R)” value: 11 for the first, 15 for the second.

Going from `CCCC[C@H](NC(C)=O)C(=O)N[C@H](C)C(=O)N(C)[C@@H](CCCCN)C(=O)N[C@@H](Cc1ccccc1)C(=O)N[C@@H](CCCNC(=N)N)C(=O)N[C@H](Cc1c[nH]c2ccccc12)C(=O)N[C@@H](CC(=O)O)C(=O)N[C@@H](CCCNC(=N)N)C(=O)N[C@@H](Cc1ccccc1)C(=O)NCC(=O)O` [CTX-1189, Nle-D-Ala-NMe-Lys-Phe-Arg-D-Trp-Asp-Arg-Phe-Gly] (Ac-[Nle][dA][NMeK]FR[dW]DRFG-OH) to `CCCC[C@H](NC(C)=O)C(=O)N[C@H](C)C(=O)N[C@@H](Cc1c[nH]cn1)C(=O)N[C@@H](Cc1ccccc1)C(=O)N[C@@H](CCCNC(=N)N)C(=O)N[C@H](Cc1c[nH]c2ccccc12)C(=O)N[C@@H](CCCCN)C(=O)N[C@@H](CCCNC(=N)N)C(=O)N[C@@H](Cc1ccccc1)C(=O)NCC(=O)O` [CTX-1533, Nle-D-Ala-His-Phe-Arg-D-Trp-Lys-Arg-Phe-Gly] (Ac-[Nle][dA]HFR[dW]KRFG-OH), the “MC3R selectivity (relative to MC4R)” value rises from 1 to 314.

First: CCCC[C@H](NC(C)=O)C(=O)N(C)[C@H](C)C(=O)N[C@@H](Cc1c[nH]cn1)C(=O)N[C@@H](Cc1ccccc1)C(=O)N[C@@H](CCCNC(=N)N)C(=O)N[C@H](Cc1c[nH]c2ccccc12)C(=O)N[C@@H](CC(=O)O)C(=O)N[C@@H](CCCNC(=N)N)C(=O)N[C@@H](Cc1ccccc1)C(=O)NCC(=O)O [CTX-1183, Nle-NMe-D-Ala-His-Phe-Arg-D-Trp-Asp-Arg-Phe-Gly] (Ac-[Nle][dNMeA]HFR[dW]DRFG-OH)
Second: CCCC[C@H](NC(C)=O)C(=O)NC(C)(C)C(=O)N[C@@H](Cc1c[nH]cn1)C(=O)N[C@@H](Cc1ccccc1)C(=O)N[C@@H](CCCNC(=N)N)C(=O)N[C@H](Cc1c[nH]c2ccccc12)C(=O)N[C@@H](CC(=O)O)C(=O)N[C@@H](CCCNC(=N)N)C(=O)N[C@@H](Cc1ccccc1)C(=O)NCC(=O)O [CTX-1143, Nle-Aib-His-Phe-Arg-D-Trp-Asp-Arg-Phe-Gly] (Ac-[Nle][Aib]HFR[dW]DRFG-OH)
The “MC3R selectivity (relative to MC4R)” value of the first is lower: 515 for the first, 3544 for the second.

First: CC(=O)N[C@H](C(=O)NCC(=O)N[C@@H](Cc1c[nH]cn1)C(=O)N[C@H](Cc1ccccc1)C(=O)N[C@@H](CCCNC(=N)N)C(=O)N[C@H](Cc1c[nH]c2ccccc12)C(=O)N[C@@H](CC(=O)O)C(N)=O)[C@@H](C)O [CTX-1113, Thr-Gly-His-D-Phe-Arg-D-Trp-Asp] (Ac-TGH[dF]R[dW]D-NH2)
Second: CCCC[C@H](NC(C)=O)C(=O)N[C@H](C)C(=O)N[C@@H](Cc1c[nH]cn1)C(=O)N[C@@H](Cc1ccccc1)C(=O)N[C@@H](CCCNC(=N)N)C(=O)N[C@H](Cc1c[nH]c2ccccc12)C(=O)N[C@@H](Cc1ccccc1)C(N)=O [CTX-1541, Nle-D-Ala-His-Phe-Arg-D-Trp-Phe] (Ac-[Nle][dA]HFR[dW]F-NH2)
The “MC3R selectivity (relative to MC4R)” value of the first is lower: 0.4 for the first, 9 for the second.

First: CCCC[C@H](NC(C)=O)C(=O)N[C@H](C)C(=O)N[C@@H](Cc1c[nH]cn1)C(=O)N[C@@H](Cc1ccc(I)cc1)C(=O)N[C@H](CCCNC(=N)N)C(=O)N[C@@H](Cc1c[nH]c2ccccc12)C(=O)N[C@@H](CC(=O)O)C(=O)N[C@@H](CCCNC(=N)N)C(=O)N[C@@H](Cc1ccccc1)C(=O)NCC(=O)O [CTX-1501, Nle-D-Ala-His-Phe(4-I)-D-Arg-Trp-Asp-Arg-Phe-Gly] (Ac-[Nle][dA]H[Phe(4-I)][dR]WDRFG-OH)
Second: CCCC[C@H](NC(C)=O)C(=O)N[C@H](C)C(=O)N[C@@H](Cc1c[nH]cn1)C(=O)N[C@@H](Cc1ccccc1)C(=O)N[C@@H](CCCNC(=N)N)C(=O)N[C@H](Cc1c[nH]c2ccccc12)C(=O)N[C@@H](CC(=O)O)C(=O)N[C@@H](CCCNC(=N)N)C(=O)N[C@@H](C)C(=O)NCC(=O)O [CTX-1537, Nle-D-Ala-His-Phe-Arg-D-Trp-Asp-Arg-Ala-Gly] (Ac-[Nle][dA]HFR[dW]DRAG-OH)
The “MC3R selectivity (relative to MC4R)” value of the first is lower: 0.01 for the first, 278 for the second.

Compared with `CCCC[C@H](NC(C)=O)C(=O)N[C@H](C)C(=O)N[C@@H](Cc1c[nH]cn1)C(=O)N[C@@H](Cc1ccccc1)C(=O)N[C@@H](CCCNC(=N)N)C(=O)N[C@H](Cc1c[nH]c2ccccc12)C(=O)N[C@@H](CC(=O)O)C(=O)N[C@@H](C)C(=O)N[C@@H](Cc1ccccc1)C(=O)NCC(=O)O` [CTX-1534, Nle-D-Ala-His-Phe-Arg-D-Trp-Asp-Ala-Phe-Gly] (Ac-[Nle][dA]HFR[dW]DAFG-OH), `CCCC[C@H](NC(C)=O)C(=O)N[C@H](C)C(=O)N[C@@H](Cc1c[nH]cn1)C(=O)N[C@@H](Cc1ccccc1)C(=O)N[C@@H](CCCNC(=N)N)C(=O)N[C@H](Cc1c[nH]c2ccccc12)C(=O)N[C@@H](CC(=O)O)C(=O)N[C@@H](CCCNC(=N)N)C(N)=O` [CTX-1163, Nle-D-Ala-His-Phe-Arg-D-Trp-Asp-Arg] (Ac-[Nle][dA]HFR[dW]DR-NH2) is higher in “MC3R selectivity (relative to MC4R)” value: 186 for the first, 282 for the second.

Going from `CCCC[C@H](NC(C)=O)C(=O)N[C@H](C)C(=O)N[C@@H](Cc1c[nH]cn1)C(=O)N[C@@H](Cc1ccc(I)cc1)C(=O)N[C@@H](CCCNC(=N)N)C(=O)N[C@H](Cc1c[nH]c2ccccc12)C(=O)N[C@@H](CC(=O)O)C(=O)N[C@@H](CCCNC(=N)N)C(N)=O` [CTX-1170, Nle-D-Ala-His-Phe(4-I)-Arg-D-Trp-Asp-Arg] (Ac-[Nle][dA]H[Phe(4-I)]R[dW]DR-NH2) to `CCCC[C@H](NC(C)=O)C(=O)N[C@H](C)C(=O)N[C@@H](CCCNC(=N)N)C(=O)N[C@@H](Cc1ccc(I)cc1)C(=O)N[C@@H](CCCNC(=N)N)C(=O)N[C@H](Cc1c[nH]c2ccccc12)C(=O)N[C@@H](CC(=O)O)C(=O)N[C@@H](CCCNC(=N)N)C(=O)N[C@@H](Cc1ccccc1)C(=O)NCC(=O)O` [CTX-1197, Nle-D-Ala-Arg-Phe(4-I)-Arg-D-Trp-Asp-Arg-Phe-Gly] (Ac-[Nle][dA]R[Phe(4-I)]R[dW]DRFG-OH), the “MC3R selectivity (relative to MC4R)” value rises from 67 to 250.

`CCCC[C@H](NC(C)=O)C(=O)NC(C)(C)C(=O)N[C@@H](Cc1c[nH]cn1)C(=O)N[C@@H](Cc1ccc(I)cc1)C(=O)N[C@@H](CCCNC(=N)N)C(=O)N[C@H](Cc1c[nH]c2ccccc12)C(=O)NCC(N)=O` [CTX-1545, Nle-Aib-His-Phe(4-I)-Arg-D-Trp-Gly] (Ac-[Nle][Aib]H[Phe(4-I)]R[dW]G-NH2) was tested, and the “MC3R selectivity (relative to MC4R)” value was 14.

For `CCCC[C@H](NC(C)=O)C(=O)N[C@H](C)C(=O)N[C@@H](Cc1c[nH]cn1)C(=O)N[C@@H](Cc1ccccc1)C(=O)N[C@@H](CCCCN)C(=O)N[C@H](Cc1c[nH]c2ccccc12)C(=O)N[C@@H](CC(=O)O)C(=O)N[C@@H](CCCNC(=N)N)C(=O)N[C@@H](Cc1ccccc1)C(=O)NCC(=O)O` [CTX-1523, Nle-D-Ala-His-Phe-Lys-D-Trp-Asp-Arg-Phe-Gly] (Ac-[Nle][dA]HFK[dW]DRFG-OH), the “MC3R selectivity (relative to MC4R)” value was 5,321.
With `CCCC[C@H](NC(C)=O)C(=O)N[C@H](C)C(=O)N[C@@H](Cc1c[nH]cn1)C(=O)N[C@@H](Cc1ccccc1)C(=O)N[C@@H](CCCNC(=N)N)C(=O)N[C@H](Cc1c[nH]c2ccccc12)C(=O)N[C@@H](CC(=O)O)C(=O)N[C@@H](CCCNC(=N)N)C(=O)N[C@@H](Cc1ccccc1)C(=O)N[C@H](C(=O)O)C(C)C` [CTX-1538, Nle-D-Ala-His-Phe-Arg-D-Trp-Asp-Arg-Phe-Val] (Ac-[Nle][dA]HFR[dW]DRFV-OH) the “MC3R selectivity (relative to MC4R)” value was 1,276.
